Source: patent publication US20140135357A1, “DOSE REGIME FOR CAMPTOTHECIN DERIVATIVES” (Taiwan Liposome Company, Ltd., priority 2012, published 2014)
“Also recorded” adds a separate entry of the source. Read-outs that look alike come from different tables or passages of the source.

Tests used:
[1] = in-vitro study of anti-proliferative activity; assay type: cell-based
[2] = human, in vivo
Experimental: (§1) A non-randomized phase I clinical trial was conducted at 4 institutions in the US and Taiwan.
(§2) Patients were included in this trial if they are over the age of 18, with advanced cancer and the ECOG performance status is 0 or 1. […] Patients were excluded from the study if they have previously received more than 3 regimens of chemotherapy, or if they have received chemotherapy or radiotherapy within 4 weeks of the trial recruitment.
(§3) Eligible patients were given the pharmaceutical composition of the present invention, comprising a mixture of TLC388HCl and mPEG2000-DSPE in a molar ratio of 1:0.7 to 1:0.9 (known as Lipotecan®). […] The pharmaceutical composition was administered as a 30-min IV infusion, on days 1, 8, and 15 of a 28-day cycle (i.e. 3 IV infusions per 28-day cycle).
(§4) Serum samples were collected from the patients for pharmacokinetic analysis on day 1, day 8 and day 15 of Cycles 1 and 2, at the following times:
(§5) Post IV infusion: (Day 1 and 8 of Cycle 1): 33 min; 40 min; 50 min; 1 h; 1 h 30 min; 2 h; 4 h and 8 h. Post IV infusion (Day 15 of Cycle 1 and Day 1, 8, and 15 of Cycle 2): 4 h. Patients were assessed every 8 weeks, after 2 cycles of treatments.
(§6) During the 2-cycle study period, the patients were examined regularly for the following outcomes: • Side effect/DLT; • The pK profiles of the (S,S) and (S,R) diastereomers of TLC388HCl, its 3 metabolites (TLC-U1, TLC-U2 and Topotecan) on day 1 and day 8 of the treatment cycle; and • Anti-cancer efficacy.

topoisomerase I = target: T1, topoisomerase I (Homo sapiens, UniProt P11387); experiment: Topoisomerase I inhibition; assay type: biochemical
T1 sequence (P11387 1-765): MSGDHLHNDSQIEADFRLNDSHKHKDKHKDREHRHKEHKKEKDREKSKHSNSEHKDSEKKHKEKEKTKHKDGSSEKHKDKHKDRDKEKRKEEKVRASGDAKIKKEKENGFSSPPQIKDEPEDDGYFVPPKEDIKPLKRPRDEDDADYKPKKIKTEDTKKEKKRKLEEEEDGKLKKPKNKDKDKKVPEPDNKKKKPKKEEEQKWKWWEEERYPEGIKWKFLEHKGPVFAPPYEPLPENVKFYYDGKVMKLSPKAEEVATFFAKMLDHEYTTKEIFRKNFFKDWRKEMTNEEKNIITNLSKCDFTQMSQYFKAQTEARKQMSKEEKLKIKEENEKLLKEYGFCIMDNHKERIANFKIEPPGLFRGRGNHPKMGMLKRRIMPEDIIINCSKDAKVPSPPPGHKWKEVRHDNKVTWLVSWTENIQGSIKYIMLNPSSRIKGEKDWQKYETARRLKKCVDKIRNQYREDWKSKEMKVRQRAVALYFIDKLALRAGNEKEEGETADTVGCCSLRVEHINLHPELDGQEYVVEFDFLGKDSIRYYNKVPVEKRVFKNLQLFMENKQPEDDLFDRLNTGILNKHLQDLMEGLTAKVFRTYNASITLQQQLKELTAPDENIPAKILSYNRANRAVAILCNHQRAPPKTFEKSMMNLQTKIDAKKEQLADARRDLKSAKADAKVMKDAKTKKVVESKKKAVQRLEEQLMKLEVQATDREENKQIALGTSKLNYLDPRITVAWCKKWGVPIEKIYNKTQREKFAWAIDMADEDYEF

clinical = details: human, in vivo
Experimental: as §1, §2, §3, §4, §5, §6

Dose-normalized AUClast [2]: 4.05 ± 1.34 nM*h/(mg/m^2) | Dose-normalized Cmax [2]: 2.84 ± 0.97 nM/(mg/m^2) | difference between PK profiles on Day 1 and Day 8 [2]: no significant difference | dose proportionality of exposure [2]: roughly dose proportional | AUC0-t ([2]; 1.5 mg/m2): 2.872 (0.882) hr · ng/mL | Cmax ([2]; 1.5 mg/m2): 2.117 (0.468) ng/mL | Tmax ([2]; 1.5 mg/m2): 0.505 (0.039) hr | t1/2 ([2]; 1.5 mg/m2): 1.953 (0.698) hr | AUC0-t ([2]; 3 mg/m2): 5.625 (1.972) hr · ng/mL | AUC0-t ([2]; 6 mg/m2): 11.599 (1.437) hr · ng/mL | AUC0-t ([2]; 9 mg/m2): 16.581 (3.976) hr · ng/mL | AUC0-t ([2]; 20 mg/m2): 29.023 (7.443) hr · ng/mL | AUC0-t ([2]; 30 mg/m2): 78.761 (50.88) hr · ng/mL | AUC0-t ([2]; 35 mg/m2): 102.97 (20.18) hr · ng/mL | Cmax ([2]; 35 mg/m2): 74.800 (42.82) ng/mL | Tmax ([2]; 35 mg/m2): 0.592 (0.091) hr | t1/2 ([2]; 35 mg/m2): 3.347 (1.219) hr | AUC0-t ([2]; 40 mg/m2): 72.758 (49.22) hr · ng/mL | AUC0-t ([2]; 50 mg/m2): 97.314 (38.34) hr · ng/mL | AUC0-t ([2]; 60 mg/m2): 109.80 (25.72) hr · ng/mL | time at which peak plasma concentrations (Cmax) were achieved ([2]; iv): within one hour | time of rapid rise of the metabolites in the serum after starting the infusion ([2]; iv): ≤ 15 min | topoisomerase I inhibition (topoisomerase I): weak topoisomerase I Inhibitors | AUC0-t (clinical; 1.5 mg/m2, AUC0-t): 3.74 ng·h/mL | Cmax (clinical; 1.5 mg/m2, Cmax): 3.34 ng/mL | Tmax (clinical; 1.5 mg/m2, Tmax): 37.7 min | half-life (clinical; 1.5 mg/m2, t1/2): 138 min | AUC0-t (clinical; 3 mg/m2, AUC0-t): 7.91 ng·h/mL | Cmax (clinical; 3 mg/m2, Cmax): 5.14 ng/mL | Tmax (clinical; 3 mg/m2, Tmax): 28 min | half-life (clinical; 3 mg/m2, t1/2): 140 min | AUC0-t (clinical; 6 mg/m2, AUC0-t): 11.6 ng·h/mL | Cmax (clinical; 6 mg/m2, Cmax): 7.52 ng/mL | Tmax (clinical; 6 mg/m2, Tmax): 28 min | half-life (clinical; 6 mg/m2, t1/2): 148 min | AUC0-t (clinical; 9 mg/m2, AUC0-t): 15.5 ng·h/mL | Cmax (clinical; 9 mg/m2, Cmax): 11.5 ng/mL | Tmax (clinical; 9 mg/m2, Tmax): 30.2 min | half-life (clinical; 9 mg/m2, t1/2): 195 min | AUC0-t (clinical; 13.5 mg/m2): 29.1 ng·h/mL | Cmax (clinical; 13.5 mg/m2): 18.1 ng/mL | Tmax (clinical; 13.5 mg/m2): 22 min | half-life (clinical; 13.5 mg/m2): 147 min | AUC0-t (clinical; 20 mg/m2, AUC0-t): 33.6 ng·h/mL | Cmax (clinical; 20 mg/m2, Cmax): 28.6 ng/mL | Tmax (clinical; 20 mg/m2, Tmax): 29 min | half-life (clinical; 20 mg/m2, t1/2): 149 min | AUC0-t (clinical; 30 mg/m2, AUC0-t): 49.5 ng·h/mL | Tmax (clinical; 30 mg/m2, Tmax): 25.5 min | half-life (clinical; 30 mg/m2, t1/2): 139 min | AUC0-t (clinical; 35 mg/m2, AUC0-t): 88.2 ng·h/mL | Cmax (clinical; 35 mg/m2, Cmax): 48.5 ng/mL | Tmax (clinical; 35 mg/m2, Tmax): 36.5 min | half-life (clinical; 35 mg/m2, t1/2): 188 min | AUC0-t (clinical; 40 mg/m2, AUC0-t): 74.1 ng·h/mL | Cmax (clinical; 40 mg/m2, Cmax): 52.5 ng/mL | Tmax (clinical; 40 mg/m2, Tmax): 26.7 min | half-life (clinical; 40 mg/m2, t1/2): 157 min | AUC0-t (clinical; 50 mg/m2, AUC0-t): 101 ng·h/mL | Cmax (clinical; 50 mg/m2, Cmax): 65.7 ng/mL | Tmax (clinical; 50 mg/m2, Tmax): 23.4 min | half-life (clinical; 50 mg/m2, t1/2): 153 min | AUC0-t (clinical; 60 mg/m2, AUC0-t): 107 ng·h/mL | Cmax (clinical; 60 mg/m2, Cmax): 87.4 ng/mL | Tmax (clinical; 60 mg/m2, Tmax): 27 min | half-life (clinical; 60 mg/m2, t1/2): 153 min | Tmax (clinical; 60 mg/m2, tmax): 28.2 ± 8.4 min | half-life (clinical; T1/2): > 150 min | Tmax (clinical; Tmax): < 60 min
SMILES: CC[C@@]1(OC(=O)[C@H](C)O)C(=O)OCc2c1cc1n(c2=O)Cc2cc3c(CN(C)C)c(O)ccc3nc2-1 [TLC-U2, S,S-topotecan lactate]
anti-proliferative activity [1]: comparable to that of TLC 388HCl; also recorded: more potent than that of TLC-U1
